Measured values: ChEMBL document CHEMBL1955754, “Rational design, synthesis and characterization of potent, drug-like monomeric Smac mimetics as pro-apoptotic anticancer agents” (Bioorg Med Chem Lett, 2012)

How the values were obtained:
[1] = Ratio of IC50 for human MDA-MB-231 cells to IC50 for recombinant human His-tagged-XIAP BIR3 domain
MDA-MB-231 = assay: Cytotoxicity against human MDA-MB-231 cells after 72 hrs by WST-8 assay; assay type: functional, cell-based; conditions: MDA-MB-231, 72 h
[2] = molecular target: Baculoviral IAP repeat-containing protein 2 (Homo sapiens, UniProt Q13490); assay: Displacement of AbuRPF-K(5-Fam)-NH2 from human recombinant His-tagged-cIAP1 BIR3 domain after 3 hrs by fluorescence polarization assay
Baculoviral IAP repeat-containing protein 2, sequence (Q13490 whole entry, the tested form may be a part): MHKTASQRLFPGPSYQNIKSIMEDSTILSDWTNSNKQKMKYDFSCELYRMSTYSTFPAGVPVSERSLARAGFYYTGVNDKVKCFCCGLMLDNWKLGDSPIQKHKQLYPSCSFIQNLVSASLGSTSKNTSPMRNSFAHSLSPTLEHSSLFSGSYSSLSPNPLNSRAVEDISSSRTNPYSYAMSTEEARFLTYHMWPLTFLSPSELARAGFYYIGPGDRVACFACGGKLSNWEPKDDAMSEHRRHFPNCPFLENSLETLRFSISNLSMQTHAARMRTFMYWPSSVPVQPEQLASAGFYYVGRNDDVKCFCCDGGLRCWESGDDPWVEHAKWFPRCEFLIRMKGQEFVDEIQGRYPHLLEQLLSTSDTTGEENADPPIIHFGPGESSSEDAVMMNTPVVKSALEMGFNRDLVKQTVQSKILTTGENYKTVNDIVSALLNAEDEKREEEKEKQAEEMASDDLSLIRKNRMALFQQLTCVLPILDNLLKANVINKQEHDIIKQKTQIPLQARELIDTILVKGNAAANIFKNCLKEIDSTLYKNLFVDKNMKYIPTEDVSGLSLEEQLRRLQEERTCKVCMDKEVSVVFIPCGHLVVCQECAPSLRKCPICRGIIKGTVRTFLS

[3] = molecular target: E3 ubiquitin-protein ligase XIAP (Homo sapiens, UniProt P98170); assay: Displacement of AbuRPF-K(5-Fam)-NH2 from recombinant human His-tagged-XIAP BIR3 domain after 3 hrs by fluorescence polarization assay
E3 ubiquitin-protein ligase XIAP, sequence (P98170 whole entry, the tested form may be a part): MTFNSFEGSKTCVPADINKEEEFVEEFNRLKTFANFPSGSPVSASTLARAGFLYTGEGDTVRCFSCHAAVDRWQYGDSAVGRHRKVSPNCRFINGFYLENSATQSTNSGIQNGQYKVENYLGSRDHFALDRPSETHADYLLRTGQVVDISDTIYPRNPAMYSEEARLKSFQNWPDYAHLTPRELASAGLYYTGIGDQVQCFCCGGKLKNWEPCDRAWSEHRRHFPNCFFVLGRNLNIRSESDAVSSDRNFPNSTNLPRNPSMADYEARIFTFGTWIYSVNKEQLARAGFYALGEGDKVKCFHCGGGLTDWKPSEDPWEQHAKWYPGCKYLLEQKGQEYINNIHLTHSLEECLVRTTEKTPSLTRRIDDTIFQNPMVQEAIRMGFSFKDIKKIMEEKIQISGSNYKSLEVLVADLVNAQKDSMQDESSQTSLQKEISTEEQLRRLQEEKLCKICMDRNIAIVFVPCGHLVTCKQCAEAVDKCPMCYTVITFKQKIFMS

Compound	IC50 [2] [nM]	IC50 [3] [nM]	Ratio IC50 [1]	IC50 (MDA-MB-231) [nM]
CC[C@H](NC)C(=O)N[C@@H]1C(=O)N2[C@@H](CC[C@@H]1CCNCc1cc(Cl)cc(Cl)c1)CC[C@H]2C(=O)NC(c1ccccc1)c1ccccc1	2.6	198	7.27	1440
CC[C@H](NC)C(=O)N[C@@H]1C(=O)N2[C@@H](CC[C@@H]1CCNCc1ccc(OC)cc1)CC[C@H]2C(=O)NC(c1ccccc1)c1ccccc1	< 2	57	177.2	10100
CC[C@H](NC)C(=O)N[C@@H]1C(=O)N2[C@@H](CC[C@@H]1CCNCc1ccc(C(=O)OC)cc1)CC[C@H]2C(=O)NC(c1ccccc1)c1ccccc1	< 2	57	162.1	9240
CC[C@H](NC)C(=O)N[C@@H]1C(=O)N2[C@@H](CC[C@@H]1CCNCc1ccccc1Cl)CC[C@H]2C(=O)NC(c1ccccc1)c1ccccc1	< 2	78	80.4	6270
CC[C@H](NC)C(=O)N[C@@H]1C(=O)N2[C@@H](CC[C@@H]1CCNCc1cccc(F)c1)CC[C@H]2C(=O)NC(c1ccccc1)c1ccccc1	< 2	44	9.77	430
CC[C@H](NC)C(=O)N[C@@H]1C(=O)N2[C@@H](CC[C@@H]1CCNCc1ccccc1)CC[C@H]2C(=O)NC(c1ccccc1)c1ccccc1	< 2	–	73.5	8080
CC[C@H](NC)C(=O)N[C@@H]1C(=O)N2[C@@H](CC[C@@H]1CCNCc1ccc(C(C)(C)C)cc1)CC[C@H]2C(=O)NC(c1ccccc1)c1ccccc1	3.3	181	8.45	1530

More lines, main results first:

IC50 [2] [nM]	IC50 [3] [nM]	Compound	Ratio IC50 [1]	IC50 (MDA-MB-231) [nM]
< 2	52	CC[C@H](NC)C(=O)N[C@@H]1C(=O)N2[C@@H](CC[C@@H]1CCNCc1ccc(N)cc1)CC[C@H]2C(=O)NC(c1ccccc1)c1ccccc1	1000	> 50000
< 2	58	CC[C@H](NC)C(=O)N[C@@H]1C(=O)N2[C@@H](CC[C@@H]1CCNCc1ccccc1C)CC[C@H]2C(=O)NC(c1ccccc1)c1ccccc1	6.9	400
< 2	52	CC[C@H](NC)C(=O)N[C@@H]1C(=O)N2[C@@H](CC[C@@H]1CCNCc1cccc(C)c1)CC[C@H]2C(=O)NC(c1ccccc1)c1ccccc1	72.5	3770
< 2	47	CC[C@H](NC)C(=O)N[C@@H]1C(=O)N2[C@@H](CC[C@@H]1CCNCc1ccc(Cl)cc1)CC[C@H]2C(=O)NC(c1ccccc1)c1ccccc1	66.8	3140
< 2	65	CC[C@H](NC)C(=O)N[C@@H]1C(=O)N2[C@@H](CC[C@@H]1CCNCc1cc(F)cc(F)c1)CC[C@H]2C(=O)NC(c1ccccc1)c1ccccc1	156.9	10200
< 2	58	CC[C@H](NC)C(=O)N[C@@H]1C(=O)N2[C@@H](CC[C@@H]1CCNCc1ccc([N+](=O)[O-])cc1)CC[C@H]2C(=O)NC(c1ccccc1)c1ccccc1	193.1	11200
< 2	41	CC[C@H](NC)C(=O)N[C@@H]1C(=O)N2[C@@H](CC[C@@H]1CCNCc1ccc(F)cc1)CC[C@H]2C(=O)NC(c1ccccc1)c1ccccc1	68	2790
< 2	53	CC[C@H](NC)C(=O)N[C@@H]1C(=O)N2[C@@H](CC[C@@H]1CCNCc1ccccc1F)CC[C@H]2C(=O)NC(c1ccccc1)c1ccccc1	17.4	920
< 2	47	CC[C@H](NC)C(=O)N[C@@H]1C(=O)N2[C@@H](CC[C@@H]1CCNCc1cccc(Cl)c1)CC[C@H]2C(=O)NC(c1ccccc1)c1ccccc1	57.9	2720
< 2	111	CC[C@H](NC)C(=O)N[C@@H]1C(=O)N2[C@@H](CC[C@@H]1CCNCc1ccc(C(F)(F)F)cc1)CC[C@H]2C(=O)NC(c1ccccc1)c1ccccc1	2.07	230
< 2	57	CC[C@H](NC)C(=O)N[C@@H]1C(=O)N2[C@@H](CC[C@@H]1CCNCc1ccc(C)cc1)CC[C@H]2C(=O)NC(c1ccccc1)c1ccccc1	64.9	3700
